Assay results reported in paper PMC3074303 (Biochemistry, 2010).

Biological target: arrestin-1 (visual arrestin) (Bos taurus, UniProt P08168, F197A/F85A)
Test: 2D 1H-15N TROSY NMR chemical shift titration fitted to a […] model
Type: binding

arrestin-1 (visual arrestin), sequence (P08168 whole entry F85A/F197A): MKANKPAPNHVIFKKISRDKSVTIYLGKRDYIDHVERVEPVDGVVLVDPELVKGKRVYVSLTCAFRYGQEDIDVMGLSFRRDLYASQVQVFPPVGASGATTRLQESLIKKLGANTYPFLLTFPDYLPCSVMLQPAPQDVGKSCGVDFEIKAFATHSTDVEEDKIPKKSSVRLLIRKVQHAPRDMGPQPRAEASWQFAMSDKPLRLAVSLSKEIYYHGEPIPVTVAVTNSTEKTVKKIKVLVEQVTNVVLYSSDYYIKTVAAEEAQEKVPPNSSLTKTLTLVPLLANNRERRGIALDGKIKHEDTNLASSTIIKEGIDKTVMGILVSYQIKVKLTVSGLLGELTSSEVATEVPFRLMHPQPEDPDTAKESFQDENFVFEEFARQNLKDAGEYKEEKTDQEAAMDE

Kd: 160 ± 60 µM
Compound: O=P(O)(O)O[C@H]1[C@H](OP(=O)(O)O)[C@@H](OP(=O)(O)O)[C@H](OP(=O)(O)O)[C@@H](OP(=O)(O)O)[C@H]1OP(=O)(O)O [IP6]
